Reference: paper PMC10709440, “High-throughput ligand profile characterization in novel cell lines expressing seven heterologous insect olfactory receptors for the detection of volatile plant biomarkers” (Scientific Reports, 2023)
Like-named read-outs stand apart in the source and are kept apart here.

Key:
Drosophila OR71a = target: T1, Drosophila OR71a (Drosophila melanogaster, UniProt Q9VUK5); assay: Calcium ion fluorescence (GCaMP6) assay, OR71a stable HEK293 cell line; format: cell-based; conditions: for activation at 1 µM / activation at 10 µM / activation at 100 µM: HEK293, read-out: OR71a response (VUAA1-normalized response); for Average response: OR71a cell line, VUAA1-normalized response, mean of biological replicates; for DF norm AVERAGE OR71a: normalized fluorescence change, values below 0.05 threshold given as 0
T1 construct: expressed in transfected cells
T1 sequence (Q9VUK5 1-378): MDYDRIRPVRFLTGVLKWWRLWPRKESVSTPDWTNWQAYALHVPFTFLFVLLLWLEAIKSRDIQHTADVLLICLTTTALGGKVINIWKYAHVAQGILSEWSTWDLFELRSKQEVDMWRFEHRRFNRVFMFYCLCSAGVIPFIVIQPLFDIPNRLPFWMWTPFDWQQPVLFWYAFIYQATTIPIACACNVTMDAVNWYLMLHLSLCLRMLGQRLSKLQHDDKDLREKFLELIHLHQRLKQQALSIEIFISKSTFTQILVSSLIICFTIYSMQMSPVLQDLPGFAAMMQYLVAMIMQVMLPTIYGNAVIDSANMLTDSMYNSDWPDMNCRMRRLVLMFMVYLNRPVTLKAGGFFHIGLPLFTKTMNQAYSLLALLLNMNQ
T1 sequence (Q9VNB5 1-486 partner): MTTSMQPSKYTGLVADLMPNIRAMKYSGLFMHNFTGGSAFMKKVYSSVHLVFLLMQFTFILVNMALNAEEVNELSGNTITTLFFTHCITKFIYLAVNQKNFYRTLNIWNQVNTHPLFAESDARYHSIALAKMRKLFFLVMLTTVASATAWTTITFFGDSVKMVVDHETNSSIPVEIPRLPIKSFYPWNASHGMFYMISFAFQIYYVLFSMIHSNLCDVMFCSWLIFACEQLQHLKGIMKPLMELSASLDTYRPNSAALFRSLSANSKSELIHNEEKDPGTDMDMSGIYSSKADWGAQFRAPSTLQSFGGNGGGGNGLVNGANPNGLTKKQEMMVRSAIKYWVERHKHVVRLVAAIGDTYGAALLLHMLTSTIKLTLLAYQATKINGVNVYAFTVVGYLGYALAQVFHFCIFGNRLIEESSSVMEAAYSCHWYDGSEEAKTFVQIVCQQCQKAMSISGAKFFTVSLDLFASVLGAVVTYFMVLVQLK
Experimental: These VUAA1 normalized ∆F values were used to compare the different receptors and ligands.
The concentration-dependent effect of the reference ligands on their cognate cell lines was examined in more detail. Twelve different ligand concentrations were measured on each cell line in an overall 0.01 μM to 100 μM concentration range with 5 repetitions with three technical replicates each time.
Twelve thousand to 18,000 cells were plated into each well of a black wall, transparent bottom 384-well microplate (Greiner) 48 h or 72 h before the measurements and were simultaneously treated with 1 μg/mL doxycycline. […] The plate has 24 columns, thus we could record responses in up to eight different cell lines in each plate. On the day of the experiment, the growth medium was replaced with 20 µL assay buffer/well (140 mM NaCl, 5 mM KCl, 2 mM CaCl2, 1 mM MgCl2, 5 mM HEPES-Na, 20 mM glucose, pH 7.3, 340 mOsm). […] Baseline fluorescence (F0) was recorded for 5 s, after which 7 µL VOC buffer (140 mM NaCl, 5 mM KCl, 2 mM CaCl2, 1 mM MgCl2, 5 mM HEPES-Na, 31 mM glucose, 0.1% DMSO, pH 7.3, 340 mOsm) was injected into each well in one row and the fluorescence response was recorded for an additional 30 s, at a rate of one read/sec. VOC solutions (VOC buffer with 4× concentration of the final measured VOC concentration, 9 µL/well was injected) were measured on the same wells in a second round with the same protocol. Each individual concentration of a specific VOC sample was recorded in three wells for the same cell line on the same microplate. The raw data were exported in xls file format, F0 and FMAX values, and the fluorescence intensity changes (∆F) were calculated in Excel (Microsoft) (Supplementary file Data summary.xlsx) using the following equation: ΔF=FMAX-F0/F0 (see also Fig. 1C). On each plate, we recorded the response of each cell line to 50 µM VUAA1. The average of these ∆F values of each cell line were used to calculate the VUAA1-normalized values for the rest of the plate, by dividing VOC response ∆F values by the average VUAA1 response ∆F value of the corresponding OR cell line. Each VOC-OR combination was measured three times as technical replicates. […] The average of these replicates were used as one ∆F and VUAA1-normalized ∆F in the following analysis.
In the next rows we tested the reference VOCs (or other VOCs known to activate the corresponding cell lines), in order to test if all cell lines are responsive. The remaining rows were used to test VOCs with unknown effect.
The recorded FMAX, F0, ∆F, VUAA1-normalized ∆F values, as well as the OR name, the name of the tested sample, and the final concentration for each well were copied into supplementary file Data summary.xlsx, that was used to summarize all the plates recorded. Here, the averages of the measurements were calculated for each receptor-VOC-concentration combination.

Drosophila OR47a = target: T2, Drosophila OR47a (Drosophila melanogaster, UniProt P81921); assay: Calcium ion fluorescence (GCaMP6) assay, OR47a stable HEK293 cell line; format: cell-based; conditions: for Average response: OR47a cell line, mean of biological replicates; for DF norm AVERAGE OR47a: normalized fluorescence change, values below 0.05 threshold given as 0
T2 construct: expressed in transfected cells
T2 sequence (P81921 1-385): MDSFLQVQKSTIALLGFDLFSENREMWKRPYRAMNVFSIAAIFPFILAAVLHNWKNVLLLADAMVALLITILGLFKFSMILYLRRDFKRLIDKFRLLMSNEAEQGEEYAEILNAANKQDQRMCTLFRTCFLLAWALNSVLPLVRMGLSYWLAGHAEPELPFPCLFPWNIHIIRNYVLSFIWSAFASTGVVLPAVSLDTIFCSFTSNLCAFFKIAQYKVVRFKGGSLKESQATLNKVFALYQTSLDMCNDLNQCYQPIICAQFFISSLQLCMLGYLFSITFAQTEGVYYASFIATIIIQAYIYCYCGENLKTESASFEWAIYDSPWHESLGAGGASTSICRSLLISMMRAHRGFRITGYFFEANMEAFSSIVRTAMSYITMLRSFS
T2 sequence (Q9VNB5 1-486 partner): T1 sequence (Q9VNB5 1-486 partner)
How it was run: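 HEK293 lines stably expressing each Drosophila OR with GCaMP6, doxycycline-induced (1 μg/mL) 48 or 72 h. Fluorescence recorded 5 s baseline then 30 s after VOC injection at pH 7.3; ΔF=(FMAX−F0)/F0, normalized to 50 µM VUAA1 response per line, triplicate wells averaged; concentration series 0.01–100 μM.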

[1] = HEK293, read-out: OR47a response (VUAA1-normalized response)
[2] = HEK293, read-out: OR47a Average response (VUAA1-normalized)

Structure (SMILES) | activation at 1 µM (Drosophila OR71a) [%] | activation at 10 µM (Drosophila OR71a) [%] | activation at 100 µM (Drosophila OR71a) [%] | Average response (Drosophila OR71a; cc. 1 µM) | Average response (Drosophila OR71a; cc. 10 µM) | Average response (Drosophila OR71a; cc. 100 µM) | DF norm AVERAGE OR71a (Drosophila OR71a; concentration 1) | DF norm AVERAGE OR71a (Drosophila OR71a; concentration 10) | DF norm AVERAGE OR71a (Drosophila OR71a; concentration 100) | activation at 1 µM (Drosophila OR47a; [1]) [%] | activation at 10 µM (Drosophila OR47a; [1]) [%] | activation at 100 µM (Drosophila OR47a; [1]) [%] | Average response (Drosophila OR47a; odorant cc. 1 µM) | Average response (Drosophila OR47a; odorant cc. 10 µM) | Average response (Drosophila OR47a; odorant cc. 100 µM) | DF norm AVERAGE OR47a (Drosophila OR47a; concentration 1) | DF norm AVERAGE OR47a (Drosophila OR47a; concentration 10) | DF norm AVERAGE OR47a (Drosophila OR47a; concentration 100) | also measured
CCCCCC(O)CC (stereo not drawn) [3-octanol] | 0 | 0 | 0 | 0.0215 | 0.00 | 0.00 | 0 | 0 | 0 | 0 | 0 | 9 | 0.00 | 0.00 | 0.09 | 0 | 0 | 0.08889 | –
CCCCCC(=O)CC [3-octanone] | 0 | 0 | 0 | 0.00 | 0.00 | 0.00 | 0 | 0 | 0 | 7.45 | 16 | 73 | 0.0745 | 0.16 | 0.73 | 0.07449 | 0.1581 | 0.7333 | activation at 1 µM (Drosophila OR47a; [2]): 7%; activation at 10 µM (Drosophila OR47a; [2]): 16%; activation at 100 µM (Drosophila OR47a; [2]): 73%
Cc1ccc(O)cc1 [4-methylphenol] | 0 | 0 | 0 | 0.00 | 0.00 | 0.00 | 0 | 0 | 0 | 10 | 0 | 5.42 | 0.10 | 0.0217 | 0.0542 | 0.1 | 0 | 0.05422 | –
C=CC(O)C/C=C\CC (stereo not drawn) [(5Z)-octa-1,5-dien-3-ol] | 0 | 0 | 0 | 0.00 | 0.0228 | 0.00 | 0 | 0 | 0 | 0 | 0 | 0 | 0.00 | 0.00 | 0.00 | 0 | 0 | 0 | –
C=C1[C@H]2CC[C@@H]3[C@H]2C(C)(C)CCC[C@]13C [(+)-longifolene] | – | – | – | 0.00 | 0.03 | 0.0431 | 0 | 0 | 0 | – | – | – | 0.00 | 0.00 | 0.0238 | 0 | 0 | 0 | OR71a response (VUAA1-normalized response) (Drosophila OR71a; VOC concentration 1 μM): 0.00; OR71a response (VUAA1-normalized response) (Drosophila OR71a; VOC concentration 10 μM): 0.00; OR71a response (VUAA1-normalized response) (Drosophila OR71a; VOC concentration 100 μM): 0.00; OR47a response (VUAA1-normalized response) (Drosophila OR47a; VOC concentration 1 μM): 0.00; OR47a response (VUAA1-normalized response) (Drosophila OR47a; VOC concentration 10 μM): 0.00; OR47a response (VUAA1-normalized response) (Drosophila OR47a; VOC concentration 100 μM): 0.00
C=C1CC[C@H]2O[C@]2(C)CC[C@@H]2[C@@H]1CC2(C)C [(-)-caryophyllene oxide] | 0 | 0 | 7.44 | 0.00 | 0.00 | 0.0744 | 0 | 0 | 0.07441 | 0 | 0 | 0 | 0.00 | 0.00 | 0.00 | 0 | 0 | 0 | –
C=C1CC/C=C(\C)CC[C@@H]2[C@@H]1CC2(C)C [(-)-trans-caryophyllene] | 0 | 0 | 0 | 0.0273 | 0.00 | 0.00 | 0 | 0 | 0 | 0 | 0 | 0 | 0.0166 | 0.0326 | 0.00 | 0 | 0 | 0 | –
